Consider 24 compounds from patent US7569578B2, “Heterocyclic anti-migraine agents” (Bristol-Meyers Squibb Company, priority 2003, dated 2009).

The target in this assay is T1, Human CGRP1 Receptor (Homo sapiens, UniProt O60894+Q16602).
T1 construct: endogenous in cells; host or cells: SK-N-MC cells (membrane homogenate)
Briefly: CGRP Binding Assay ([125I]-CGRP radioligand displacement, SK-N-MC membrane homogenate). Conditions: [125I]-CGRP displacement, SK-N-MC homogenate, room temperature 2 h; read-out: Human CGRP1 Receptor IC50. On the procedure:
Tissue Culture. SK-N-MC cells were grown at 37° C. in 5% CO2 as a monolayer in medium consisting of MEM with Earle's salts and L-glutamine (Gibco) supplemented with 10% fetal bovine serum (Gibco).
Cell Pellets. […] The cells were transferred from plates to polypropylene tubes (16×100 mm) and homogenized using a polytron. Homogenates were centrifuged at 32,000×g for 30 min. The pellets were resuspended in cold hypotonic lysis buffer with 0.1% mammalian protease inhibitor cocktail (Sigma) and assayed for protein concentration. The SK-N-MC homogenate was then aliquoted and stored at −80° C. until needed.
Radioligand Binding Assay. The compounds of invention were solubilized and carried through serial dilutions using 100% DMSO. Aliquots from the compound serial dilutions were further diluted 25 fold into assay buffer (50 mM Tris-Cl pH 7.5, 5 mM MgCl2, 0.005% Triton X-100) and transferred (volume 50 μl) into 96 well assay plates. […] SK-N-MC pellets were thawed, diluted in assay buffer with fresh 0.1% mammalian protease inhibitor cocktail (Sigma), and homogenized again. SK-N-MC homogenate (5 μg/well) was added in a volume of 100 μl. The assay plates were then incubated at room temperature for 2 h. Assays were stopped by addition of excess cold wash buffer (20 mM Tris-Cl pH 7.5, 0.1% BSA) immediately followed by filtration over glass fiber filters (Whatman GF/B) previously soaked in 0.5% PEI. Non-specific binding was defined with 1 μM beta-CGRP. Protein bound radioactivity was determined using a gamma or scintillation counter.

T1 sequence (Q16602 23-461): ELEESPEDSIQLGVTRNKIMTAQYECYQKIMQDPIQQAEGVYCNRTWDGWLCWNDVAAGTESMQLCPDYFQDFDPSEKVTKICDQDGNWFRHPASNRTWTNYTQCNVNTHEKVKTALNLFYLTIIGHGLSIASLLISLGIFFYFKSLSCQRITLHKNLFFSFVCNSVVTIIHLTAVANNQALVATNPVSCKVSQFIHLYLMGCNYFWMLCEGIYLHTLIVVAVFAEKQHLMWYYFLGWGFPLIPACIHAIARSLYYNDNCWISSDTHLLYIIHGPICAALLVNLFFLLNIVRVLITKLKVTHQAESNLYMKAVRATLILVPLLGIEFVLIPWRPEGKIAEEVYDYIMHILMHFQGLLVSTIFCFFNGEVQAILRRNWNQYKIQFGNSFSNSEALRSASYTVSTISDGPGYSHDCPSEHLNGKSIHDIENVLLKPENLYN
T1 sequence (O60894 27-148): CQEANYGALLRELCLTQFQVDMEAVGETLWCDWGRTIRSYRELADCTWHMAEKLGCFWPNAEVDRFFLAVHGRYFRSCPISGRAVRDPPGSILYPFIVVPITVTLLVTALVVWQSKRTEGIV

As for `Cc1cc(CC(CC(=O)N2CCC(N3Cc4ccccc4NC3=O)CC2)c2ccc(CO)cn2)cc2cn[nH]c12` (racemic) [Example 27, (±)-3-(1-(3-(5-(Hydroxymethyl)pyridin-2-yl)-4-(7-methyl-1H-indazol-5-yl)butanoyl)piperidin-4-yl)-3,4-dihydroquinazolin-2(1H)-one], the IC50 was under 10 nM.

`Cc1cc(CC(CC(=O)N2CCC(N3Cc4ccccc4NC3=O)CC2)c2ccc(C=O)cn2)cc2cn[nH]c12` (racemic) [Example 28, (±)-6-(1-(7-Methyl-1H-indazol-5-yl)-4-oxo-4-(4-(2-oxo-1,2-dihydroquinazolin-3(4H)-yl)piperidin-1-yl)butan-2-yl)nicotinaldehyde]: the IC50 was under 10 nM. As for `Cc1cc(CC(CC(=O)N2CCC(N3Cc4ccccc4NC3=O)CC2)c2ccc(CN3CCCCC3)cn2)cc2cn[nH]c12` (racemic) [Example 29, (±)-3-(1-(4-(7-Methyl-1H-indazol-5-yl)-3-(5-(piperidin-1-ylmethyl)pyridin-2-yl)butanoyl)piperidin-4-yl)-3,4-dihydroquinazolin-2(1H)-one], the figure is under 10 nM; as for `Cc1cc(CC(NC(=O)N2CCC(N3Cc4ccccc4NC3=O)CC2)c2cccc(Br)n2)cc2cn[nH]c12` (racemic) [Example 30, (±)-N-(1-(6-Bromopyridin-2-yl)-2-(7-methyl-1H-indazol-5-yl)ethyl)-4-(2-oxo-1,2-dihydroquinazolin-3(4H)-yl)piperidine-1-carboxamide], under 10 nM. `Cc1cc(CC(NC(=O)N2CCC(N3Cc4ccccc4NC3=O)CC2)c2ccccn2)cc2cn[nH]c12` (racemic) [Example 31, (±)-N-(2-(7-Methyl-1H-indazol-5-yl)-1-(pyridin-2-yl)ethyl)-4-(2-oxo-1,2-dihydroquinazolin-3(4H)-yl)piperidine-1-carboxamide]: the IC50 is under 10 nM. As for `Cc1cc(CC(NC(=O)N2CCC(N3Cc4ccccc4NC3=O)CC2)c2cc([N+](=O)[O-])ccn2)cc2cn[nH]c12` (racemic) [Example 32, (±)-N-(2-(7-Methyl-1H-indazol-5-yl)-1-(4-nitropyridin-2-yl)ethyl)-4-(2-oxo-1,2-dihydroquinazolin-3(4H)-yl)piperidine-1-carboxamide], the figure is under 10 nM; as for `Cc1cc(CC(NC(=O)N2CCC(N3Cc4ccccc4NC3=O)CC2)c2cc(F)ccn2)cc2cn[nH]c12` (racemic) [Example 33, (±)-N-(1-(4-Fluoropyridin-2-yl)-2-(7-methyl-1H-indazol-5-yl)ethyl)-4-(2-oxo-1,2-dihydroquinazolin-3(4H)-yl)piperidine-1-carboxamide], under 10 nM. Turning to `Cc1cc(CC(NC(=O)N2CCC(N3Cc4ccccc4NC3=O)CC2)c2ccc3ccccc3n2)cc2cn[nH]c12` (racemic) [Example 34, (±)-N-(2-(7-Methyl-1H-indazol-5-yl)-1-(quinolin-2-yl)ethyl)-4-(2-oxo-1,2-dihydroquinazolin-3(4H)-yl)piperidine-1-carboxamide], the half-inhibitory concentration (IC50) is under 10 nM. In the case of `Cc1cc(CC(NC(=O)N2CCC(N3Cc4cccc(F)c4NC3=O)CC2)c2ccc3ccccc3n2)cc2cn[nH]c12` (racemic) [Example 35, (±)-4-(8-Fluoro-2-oxo-1,2-dihydroquinazolin-3(4H)-yl)-N-(2-(7-methyl-1H-indazol-5-yl)-1-(quinolin-2-yl)ethyl)piperidine-1-carboxamide] it was under 10 nM; in that of `Cc1cc(CC(NC(=O)N2CCC(N3Cc4ccccc4NC3=O)CC2)c2cccc(-c3ccccc3)n2)cc2cn[nH]c12` (racemic) [Example 37, (±)-N-(2-(7-Methyl-1H-indazol-5-yl)-1-(6-phenylpyridin-2-yl)ethyl)-4-(2-oxo-1,2-dihydroquinazolin-3(4H)-yl)piperidine-1-carboxamide], 10 to 100 nM; in that of `Cc1cccc(C(Cc2cc(C)c3[nH]ncc3c2)NC(=O)N2CCC(N3Cc4ccccc4NC3=O)CC2)n1` (racemic) [Example 38, (±)-N-(2-(7-Methyl-1H-indazol-5-yl)-1-(6-methylpyridin-2-yl)ethyl)-4-(2-oxo-1,2-dihydroquinazolin-3(4H)-yl)piperidine-1-carboxamide], under 10 nM.

For the compound `Cc1cc(CC(OC(=O)N2CCC(N3Cc4cccc(F)c4NC3=O)CC2)c2cccc(Br)n2)cc2cn[nH]c12` (racemic) [Example 39, (±)-1-(6-Bromopyridin-2-yl)-2-(7-methyl-1H-indazol-5-yl)ethyl 4-(8-fluoro-2-oxo-1,2-dihydroquinazolin-3(4H)-yl)piperidine-1-carboxylate], the IC50 is under 10 nM. As for `Cc1cc(CC(OC(=O)N2CCC(N3Cc4ccccc4NC3=O)CC2)c2cccc(Br)n2)cc2cn[nH]c12` (racemic) [Example 40, (±)-1-(6-Bromopyridin-2-yl)-2-(7-methyl-1H-indazol-5-yl)ethyl 4-(2-oxo-1,2-dihydroquinazolin-3(4H)-yl)piperidine-1-carboxylate], the figure is under 10 nM; as for `Cc1cc(CC(OC(=O)N2CCC(N3Cc4ccccc4NC3=O)CC2)c2cccc(OC(C)(C)C)n2)cc2cn[nH]c12` (racemic) [Example 41, (±)-1-(6-tert-Butoxypyridin-2-yl)-2-(7-methyl-1H-indazol-5-yl)ethyl 4-(2-oxo-1,2-dihydroquinazolin-3(4H)-yl)piperidine-1-carboxylate], 100 to 1000 nM. For `Cc1cc(CC(OC(=O)N2CCC(N3Cc4ccccc4NC3=O)CC2)c2cccc(=O)[nH]2)cc2cn[nH]c12` (racemic) [Example 42, (±)-2-(7-Methyl-1H-indazol-5-yl)-1-(6-oxo-1,6-dihydropyridin-2-yl)ethyl 4-(2-oxo-1,2-dihydroquinazolin-3(4H)-yl)piperidine-1-carboxylate], the IC50 was 100 to 1000 nM. As for `Cc1cc(CC(OC(=O)N2CCC(N3Cc4cccc(F)c4NC3=O)CC2)c2cccc(CC(C)C)n2)cc2cn[nH]c12` (racemic) [Example 43, (±)-1-(6-Isobutylpyridin-2-yl)-2-(7-methyl-1H-indazol-5-yl)ethyl 4-(8-fluoro-2-oxo-1,2-dihydroquinazolin-3(4H)-yl)piperidine-1-carboxylate], the figure is 10 to 100 nM; as for `Cc1cc(CC(OC(=O)N2CCC(N3Cc4cccc(F)c4NC3=O)CC2)c2cccc(Cc3cc(F)cc(F)c3)n2)cc2cn[nH]c12` (racemic) [Example 44, (±)-1-(6-(3,5-Difluorobenzyl)pyridin-2-yl)-2-(7-methyl-1H-indazol-5-yl)ethyl 4-(8-fluoro-2-oxo-1,2-dihydroquinazolin-3(4H)-yl)piperidine-1-carboxylate], under 10 nM; as for `Cc1cc(CC(OC(=O)N2CCC(N3Cc4cccc(F)c4NC3=O)CC2)c2cccc(C#N)n2)cc2cn[nH]c12` (racemic) [Example 45, (±)-1-(6-Cyanopyridin-2-yl)-2-(7-methyl-1H-indazol-5-yl)ethyl 4-(8-fluoro-2-oxo-1,2-dihydroquinazolin-3(4H)-yl)piperidine-1-carboxylate], under 10 nM.

Consider `Cc1cc(CC(OC(=O)N2CCC(N3Cc4ccccc4NC3=O)CC2)c2cc(CO)ccn2)cc2cn[nH]c12` (racemic) [Example 46, (±)-1-(4-(Hydroxymethyl)pyridin-2-yl)-2-(7-methyl-1H-indazol-5-yl)ethyl 4-(2-oxo-1,2-dihydroquinazolin-3(4H)-yl)piperidine-1-carboxylate], for which the IC50 is under 10 nM. For the compound `Cc1cc(CC(OC(=O)N2CCC(N3Cc4ccccc4NC3=O)CC2)c2cc(C=O)ccn2)cc2cn[nH]c12` (racemic) [Example 47, (±)-1-(4-Formylpyridin-2-yl)-2-(7-methyl-1H-indazol-5-yl)ethyl 4-(2-oxo-1,2-dihydroquinazolin-3(4H)-yl)piperidine-1-carboxylate], the IC50 is under 10 nM. For the compound `Cc1cc(CC(OC(=O)N2CCC(N3Cc4ccccc4NC3=O)CC2)c2cc(C(=O)O)ccn2)cc2cn[nH]c12` (racemic) [Example 48, (±)-2-(2-(7-Methyl-H-indazol-5-yl)-1-(4-(2-oxo-1,2-dihydroquinazolin-3(4H)-yl)piperidine-1-carbonyloxy)ethyl)isonicotinic acid], the half-inhibitory concentration (IC50) is 10 to 100 nM. Consider `Cc1cc(CC(OC(=O)N2CCC(N3Cc4ccccc4NC3=O)CC2)c2cc(C(=O)N3CCCCC3)ccn2)cc2cn[nH]c12` (racemic) [Example 49, (±)-2-(7-Methyl-1H-indazol-5-yl)-1-(4-(piperidine-1-carbonyl)pyridin-2-yl)ethyl 4-(2-oxo-1,2-dihydroquinazolin-3(4H)-yl)piperidine-1-carboxylate], for which the IC50 was under 10 nM.

`Cc1cc(CC(NC(=O)N2CCC(N3Cc4ccccc4NC3=O)CC2)c2ncc[nH]2)cc2cn[nH]c12` (racemic) [Example 65, (±)-N-(1-(1H-Imidazol-2-yl)-2-(7-methyl-1H-indazol-5-yl)ethyl)-4-(2-oxo-1,2-dihydroquinazolin-3(4H)-yl)piperidine-1-carboxamide]: the 50% inhibitory concentration (IC50) fell in the range of 10 to 100 nM.

`Cc1cc(CC(NC(=O)N2CCC(N3Cc4ccccc4NC3=O)CC2)c2nccn2C)cc2cn[nH]c12` (racemic) [Example 66, (±)-N-(1-(1-Methyl-1H-imidazol-2-yl)-2-(7-methyl-1H-indazol-5-yl)ethyl)-4-(2-oxo-1,2-dihydroquinazolin-3(4H)-yl)piperidine-1-carboxamide]: the IC50 was under 10 nM.
